From patent publication US10183015B2, “Heterocyclic compounds and methods of use” (Medivation Technologies LLC, priority 2015, dated 2019)
Like-named read-outs stand apart in the source and are kept apart here. Blank lines part the entries; values can stand above or below the molecule they belong to.

Experiments:
[1] = tested on: SREBP2; test: SREBP2 cleavage in HepG2 cells (Western blot); type: cell-based; details: 20 μM, 1 day, DMEM without FBS
Procedure: (§1) Cancer cells such as HepG2 cells depend on SREBP activation and de novo lipogenesis to survive, particularly in low serum or serum-free conditions. Using this model, compounds were screened over 24 hours for the ability to block cleavage of SREBP to its active form and over 72 hours for an effect on cell viability under serum-free conditions.
Average SREBP2 cleavage in HepG2 cells was measured in the presence of compounds disclosed in Table 1. HepG2 cells were seeded at 500,000 cells per well in 6-well plates in DMEM supplemented with 10% FBS. After 2 days, cells were treated with compounds (20 μM) for 1 day in DMEM without FBS. Western blots were normalized with respect to actin.

[2] = tested on: HepG2 cells; test: HepG2 cell viability under serum-free conditions (MTS); type: cell-based; details: Homo sapiens, HepG2, 72 h, 3 days, DMEM without FBS, read-out: Average Viability (% Inhibition, n = 3)
Procedure: as §1
For viability measurements, HepG2 cells were seeded at 5,000 cells per well in 96-well plates in DMEM supplemented with 10% FBS. After 1 day in culture, cells were treated with compounds (20 μM & 5 μM) for 3 days in DMEM without FBS. Viability was measured by MTS […]. […]

[3] = PK parameters for representative compounds (i.v. and p.o.), Table 4; details: in vivo; for half-life: read-out: Terminal t1/2 (converted)

AUC(0-t) ([3]; iv, i.v. @ 2 mg/kg): 41 µM·h
Cmax ([3]; iv, i.v. @ 2 mg/kg): 10.2 µM
Vd ([3]; iv, i.v. @ 2 mg/kg): 0.345 L/kg
clearance ([3]; iv, i.v. @ 2 mg/kg): 1.58 mL/min/kg
half-life ([3]; iv, i.v. @ 2 mg/kg): 2.51 h
AUC(0-t) ([3]; po, p.o. @ 10 mg/kg): 302 µM·h
Cmax ([3]; po, p.o. @ 10 mg/kg): 20.3 µM
Tmax ([3]; po, p.o. @ 10 mg/kg): 1 h
bioavailability ([3]; po, p.o. @ 10 mg/kg vs i.v. @ 2 mg/kg): 149%
half-life ([3]; po, p.o. @ 10 mg/kg): 6.96 h
Structure (SMILES): CC(C)(C)c1cc(-c2nc(-c3ccc(NS(=O)(=O)C(F)(F)F)cc3Cl)cs2)ccn1 [Compound 5, N-(4-(2-(2-tert-butylpyridin-4-yl)thiazol-4-yl)-3-chlorophenyl)-1,1,1-trifluoromethanesulfonamide]
Average SREBP2 cleavage (% Inhibition, n = 3) [1]: 81.7%
cytotoxicity at 20 µM [2]: 99.2%

Structure (SMILES): O=S(=O)(Nc1ccc(-c2csc(-c3ccnc(NC4CCCC4)c3)n2)c(Cl)c1)C(F)(F)F [Compound 92, N-(3-chloro-4-{2-[2-(cyclopentylamino)pyridin-4-yl]-1,3-thiazol-4-yl}phenyl)-1,1,1-trifluoromethanesulfonamide]
cytotoxicity at 5 µM [2]: 94%

Structure (SMILES): O=S(=O)(Nc1ccc(-c2csc(-c3ccnc(CC4CCCCC4)c3)n2)c(Cl)c1)C(F)(F)F [Compound 70, N-(3-chloro-4-{2-[2-(cyclohexylmethyl)pyridin-4-yl]-1,3-thiazol-4-yl}phenyl)-1,1,1-trifluoromethanesulfonamide]
cytotoxicity at 5 µM [2]: 100%

Structure (SMILES): O=S(=O)(Nc1ccc(-c2csc(-c3ccccc3-c3ccccc3)n2)c(Cl)c1)C(F)(F)F [Compound 74, N-{3-chloro-4-[2-(2-phenylphenyl)-1,3-thiazol-4-yl]phenyl}-1,1,1-trifluoromethanesulfonamide]
cytotoxicity at 5 µM [2]: 97%

Structure (SMILES): O=S(=O)(Nc1ccc(-c2csc(-c3ccc4cc[nH]c4c3)n2)c(Cl)c1)C(F)(F)F [Compound 72, N-{3-chloro-4-[2-(1H-indol-6-yl)-1,3-thiazol-4-yl]phenyl}-1,1,1-trifluoromethanesulfonamide]
cytotoxicity at 5 µM [2]: 94%

Structure (SMILES): CS(=O)(=O)Nc1cc(-c2nc(-c3ccc(NS(=O)(=O)C(F)(F)F)cc3Cl)cs2)ccn1 [Compound 62, N-{3-chloro-4-[2-(2-methanesulfonamidopyridin-4-yl)-1,3-thiazol-4-yl]phenyl}-1,1,1-trifluoromethanesulfonamide]
cytotoxicity at 20 µM [2]: 0%
